Laboratory results reported in ChEMBL document CHEMBL1148617, “Design, synthesis, and structure-activity relationships of 1-,3-,8-, and 9-substituted-9-deazaxanthines at the human A2B adenosine receptor” (J Med Chem, 2006).
pKi: −log10 of the molar value.

Tests used:
[1] = biological target: T1, Adenosine receptor A2b (Homo sapiens, UniProt P29275)
T1 sequence (P29275 whole entry): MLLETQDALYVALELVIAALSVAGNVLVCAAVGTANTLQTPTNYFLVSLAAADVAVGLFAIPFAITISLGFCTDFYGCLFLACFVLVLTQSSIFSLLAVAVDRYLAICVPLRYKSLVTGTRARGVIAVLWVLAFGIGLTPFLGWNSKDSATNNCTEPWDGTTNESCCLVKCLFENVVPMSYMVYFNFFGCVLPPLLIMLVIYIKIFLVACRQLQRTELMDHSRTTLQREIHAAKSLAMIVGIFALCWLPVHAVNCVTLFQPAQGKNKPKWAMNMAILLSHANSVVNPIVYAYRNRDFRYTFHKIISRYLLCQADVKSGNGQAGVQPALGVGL
Description: Binding affinity to recombinant human adenosine A2B receptor

[2] = biological target: T2, Adenosine receptor A2a (Homo sapiens, UniProt P29274)
T2 sequence (P29274 whole entry): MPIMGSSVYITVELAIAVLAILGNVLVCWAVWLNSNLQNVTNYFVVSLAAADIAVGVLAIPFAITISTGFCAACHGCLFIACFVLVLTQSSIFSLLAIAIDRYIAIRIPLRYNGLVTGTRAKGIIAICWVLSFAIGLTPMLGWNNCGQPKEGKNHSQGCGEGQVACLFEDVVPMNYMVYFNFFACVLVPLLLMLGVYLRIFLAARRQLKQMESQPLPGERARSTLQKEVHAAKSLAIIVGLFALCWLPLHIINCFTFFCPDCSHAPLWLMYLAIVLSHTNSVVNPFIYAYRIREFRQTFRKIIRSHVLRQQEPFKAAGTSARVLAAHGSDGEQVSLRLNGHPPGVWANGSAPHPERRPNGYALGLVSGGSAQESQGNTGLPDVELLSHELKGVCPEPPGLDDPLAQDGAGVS
Description: Binding affinity to recombinant human adenosine A2A receptor

[3] = biological target: T3, Adenosine receptor A2b (Homo sapiens) (UniProt P29275); experiment: Displacement of [3H]DPCPX from recombinant human adenosine A2B receptor expressed in HEK293 cells at 0.01 uM
T3 sequence (whole entry): T1 sequence (P29275 whole entry)

[4] = biological target: T3, Adenosine receptor A2b (Homo sapiens); experiment: Displacement of [3H]DPCPX from recombinant human adenosine A2B receptor expressed in HEK293 cells at 0.1 uM; assay type: cell-based
[5] = biological target: T2, Adenosine receptor A2a; experiment: Displacement of [3H]ZM-241385 from recombinant human adenosine A2A receptor expressed in HeLa cells at 0.1 uM

Row | SMILES | pKi [1] | pKi [2] | inhibition [3] [%] | inhibition [4] [%] | inhibition [5] [%]
1 | CCCn1c(=O)c2[nH]c(-c3ccc(OCC(=O)c4c(NC(=O)O)[nH]c(=O)n(C)c4=O)cc3)cc2n(CCC)c1=O | 7.66 | 7.80 | 21 | 66 | 76
2 | CC(Oc1ccc(-c2cc3c([nH]2)c(=O)n(C)c(=O)n3C)cc1)C(=O)Nc1ccc(Br)cc1 (stereo not given) | 8.81 | 7.57 | 89 | 93 | 77
3 | CCCn1c(=O)c2[nH]c(-c3ccc(OCC(=O)Nc4ccc(I)cc4)cc3)cc2n(CCC)c1=O | 7.71 | 6.80 | 30 | 80 | 57
4 | CCCn1c(=O)c2[nH]c(-c3ccc(OCC(=O)Nc4ccc(OC)nc4)cc3)cc2n(CCC)c1=O | 7.97 | 6.97 | 41 | 84 | 50
5 | CCCn1c(=O)c2[nH]c(-c3ccc(OCC(=O)Nc4ccc([N+](C)(C)C)cc4)cc3)cc2n(CCC)c1=O | 7.04 | 6.15 | 4 | 52 | 8
6 | CCCn1c(=O)c2[nH]c(-c3ccc(OC(CC)C(=O)Nc4ccc(Br)cc4)cc3)cc2n(CCC)c1=O (stereo not given) | 8.22 | 7.50 | 55 | 94 | 82
7 | CCCn1c(=O)c2[nH]c(-c3ccc(OCC(=O)Nc4ccccc4O)cc3)cc2n(CCC)c1=O | 7.72 | 7.49 | 56 | 74 | 82
8 | CCCn1c(=O)c2[nH]c(-c3ccc(OCC(=O)Nc4ccc(C(=O)NCCc5ccc(OC)cc5)cc4)cc3)cc2n(CCC)c1=O | 7.91 | 6.37 | 21 | 74 | 13
9 | CC(NC(=O)COc1ccc(-c2cc3c([nH]2)c(=O)n(C)c(=O)n3C)cc1)c1ccccc1 (stereo not given) | 7.56 | 6.61 | 20 | 63 | 13
10 | Cn1c(=O)c2[nH]c(-c3ccc(OCC(=O)NCc4ccc(Cl)cc4)cc3)cc2n(C)c1=O | 8.31 | 7.69 | 61 | 93 | 75
11 | CCCn1c(=O)c2[nH]c(-c3ccc(OCC(=O)Nc4ccc(Br)cc4)cc3)cc2n(CCC)c1=O | 8.66 | 7.51 | 66 | 97 | 54
12 | CCn1c(=O)c2[nH]c(-c3ccc(OCC(=O)Nc4ccccc4)cc3)cc2n(CC)c1=O | 8.11 | 6.73 | 45 | 91 | 22
13 | COc1cc(-c2cc3c([nH]2)c(=O)n(C)c(=O)n3C)ccc1OCC(=O)Nc1ccccc1 | 6.83 | 6.52 | 10 | 27 | 20
14 | CCCn1c(=O)c2[nH]c(-c3ccc(OCC(=O)Nc4ccc(F)cc4)cc3)c(Cl)c2n(CCC)c1=O | 7.56 | 7.39 | 10 | 69 | 54
15 | COc1cc(OCC(=O)Nc2ccc(F)cc2)ccc1-c1cc2c([nH]1)c(=O)n(C)c(=O)n2C | 7.60 | 7.02 | 23 | 63 | 31
16 | COc1cccc(CNC(=O)COc2ccc(-c3cc4c([nH]3)c(=O)n(C)c(=O)n4C)cc2)c1 | 7.29 | 6.48 | 15 | 61 | 11
17 | CCCn1c(=O)c2[nH]c(-c3ccc(OCC(=O)c4c(NC(=O)O)n(C)c(=O)n(C)c4=O)cc3)cc2n(CCC)c1=O | 7.00 | 7.10 | 24 | 59 | 61
18 | CCCn1c(=O)c2[nH]c(-c3ccc(OCC(=O)NCc4ccncc4)cc3)cc2n(CCC)c1=O | 7.55 | 6.52 | 21 | 76 | 18
19 | Cn1c(=O)c2[nH]c(-c3ccc(OCC(=O)NC4CCc5ccccc54)cc3)cc2n(C)c1=O (stereo not given) | 7.65 | 6.67 | 30 | 74 | 20
20 | CN(Cc1ccccc1)C(=O)COc1ccc(-c2cc3c([nH]2)c(=O)n(C)c(=O)n3C)cc1 | 7.26 | 5.99 | 10 | 67 | 14
21 | CCCn1c(=O)c2[nH]c(-c3ccc(OCC(=O)Nc4ccc(F)cc4)cc3)c(Br)c2n(CCC)c1=O | 7.90 | 7.70 | 30 | 72 | 70

Row | SMILES | pKi [1] | pKi [2] | inhibition [3] [%] | inhibition [4] [%] | inhibition [5] [%]
22 | CCCn1c(=O)c2[nH]c(-c3ccc(OCC(=O)Nc4ccc(C=O)cc4)cc3)cc2n(CCC)c1=O | 7.20 | 6.31 | 13 | 67 | 13
23 | CCCn1c(=O)c2[nH]c(-c3ccc(OCC(=O)Nc4ccc(C(C)=O)cc4)cc3)c(Cl)c2n(CCC)c1=O | 7.28 | 7.07 | 8 | 43 | 21
24 | COc1cc(-c2cc3c([nH]2)c(=O)n(C)c(=O)n3C)ccc1OCC(=O)NCc1ccc(Cl)cc1 | 6.73 | 6.80 | 5 | 43 | 23
25 | COCCCn1c(=O)n(C)c(=O)c2[nH]c(-c3ccc(OCC(=O)NC4CCCC4)cc3)cc21 | 6.58 | 6.37 | 8 | 16 | 0
26 | CCCn1c(=O)c2[nH]c(-c3ccc(OCC(=O)Nc4ccc(S(=O)(=O)c5ccccc5)cc4)cc3)cc2n(CCC)c1=O | 7.76 | 6.55 | 10 | 85 | 27
27 | COc1cc(-c2cc3c([nH]2)c(=O)n(C)c(=O)n3C)ccc1OCC(=O)Nc1ccc(C#N)cc1 | 6.67 | 6.24 | 10 | 28 | 5
28 | CCCn1c(=O)n(C)c(=O)c2[nH]c(-c3ccc(OCC(=O)Nc4ccccc4)cc3)cc21 | 7.67 | 6.71 | 33 | 80 | 40
29 | CCCn1c(=O)c2[nH]c(-c3ccc(OC(C)C(=O)NCc4ccc(Cl)cc4)cc3)cc2n(CCC)c1=O (stereo not given) | 8.39 | 7.33 | 55 | 94 | 57
30 | CCCn1c(=O)c2[nH]c(-c3ccc(OCC(=O)Nc4ccc(Cl)cc4)cc3)cc2n(CCC)c1=O | 8.50 | 7.50 | 58 | 95 | 61
31 | CCCn1c(=O)c2[nH]c(-c3ccc(OCC(=O)Nc4ccccn4)cc3)cc2n(CCC)c1=O | 7.57 | 6.51 | 33 | 83 | 34
32 | CCCn1c(=O)c2[nH]c(-c3ccc(OCC(=O)Nc4ccc(C(=O)OCC)cc4)cc3)cc2n(CCC)c1=O | 7.25 | 7.00 | 6 | 57 | 30
33 | CCCn1c(=O)c2[nH]c(-c3ccc(OCC(=O)Nc4ccccc4)cc3)cc2n(C)c1=O | 7.91 | 6.77 | 38 | 91 | 18
34 | COc1cc(-c2cc3c([nH]2)c(=O)n(C)c(=O)n3C)ccc1OCC(=O)Nc1ccc(Br)cc1 | 7.41 | 7.09 | 15 | 78 | 32
35 | CCCn1c(=O)c2[nH]c(-c3ccc(OCC(=O)NCc4ccccc4)cc3)cc2n(CCC)c1=O | 8.50 | 7.05 | 78 | 95 | 38
36 | CCCn1c(=O)c2[nH]c(-c3ccc(N(C=O)CC(=O)Nc4ccc(Br)cc4)cc3)cc2n(CCC)c1=O | 8.11 | 7.45 | 48 | 93 | 90
37 | COc1cc(-c2cc3c([nH]2)c(=O)n(C)c(=O)n3C)ccc1OCC(=O)Nc1ccc(F)cc1 | 6.84 | 7.34 | 10 | 45 | 35
38 | CCCn1c(=O)c2[nH]c(-c3ccc(OCC(=O)Nc4ncccc4O)cc3)cc2n(CCC)c1=O | 7.68 | 6.49 | 37 | 82 | 32
39 | CCCn1c(=O)c2[nH]c(-c3ccc(OCC(=O)Nc4ccccc4F)cc3)c(Cl)c2n(CCC)c1=O | 6.85 | 6.14 | 5 | 30 | 2
40 | CCN(Cc1ccccc1)C(=O)COc1ccc(-c2cc3c([nH]2)c(=O)n(C)c(=O)n3C)cc1 | 7.37 | 6.05 | 15 | 59 | 17
41 | CCCn1c(=O)c2[nH]c(-c3ccc(OCC(=O)Nc4ccccc4)cc3)c(Br)c2n(CCC)c1=O | 7.61 | 7.37 | 16 | 73 | 54
